Experimental data reported in patent publication US8809365B2, “1-substituted 2-azabicyclo [3.1.1] heptyl derivatives useful as nicotinic acetylcholine receptor modulators for treating neurologic disorders” (Universiteit Gent, priority 2009, dated 2014).

What was measured:
[1] = relative to morphine; cited from earlier work
[2] = biological target: human α7 neuronal nicotinic receptor (Homo sapiens, UniProt P36544); test: biochemical; type: binding; conditions: read-out: % inhibition N neuronal alpha-BGTX-sensitive (alpha 7) (antagonist radioligand)
[3] = biological target: human muscle-type nicotinic receptor (Homo sapiens, UniProt P02708+P07510+Q07001); test: biochemical; type: binding; conditions: read-out: % inhibition N muscle-type (h) (antagonist radioligand)
[4] = biological target: T1, human dopamine D1 receptor (Homo sapiens, UniProt P21728); test: Human dopamine D1 receptor radioligand binding assay (antagonist radioligand); conditions: 1 μmmole test compound; 0.3 nM [3H]SCH 23390; transfected CHO cell membranes; one single experiment; 0.0003 µM
T1 construct: expressed in transfected cells; host or cells: CHO cells (membrane homogenates)
Description: Human Dopamine D1 Receptor (Antagonist Radioligand):
The purpose is to evaluate the affinity of compounds for the human dopamine D1 receptor in transfected CHO cells determined in a radioligand binding assay according to Zhou et al in Nature (1990) 347:76. The experimental protocol is as follows. Cell membrane homogenates (48 μg protein) are incubated for 60 minutes at 22° C. with 0.3 nM [^3H]SCH 23390 in the absence or presence of the test compound in a buffer containing 50 mM Tris-HCl (pH 7.4), 5 mM KCl, 5 mM MgCl2, 1.5 mM CaCl2 and 5 mM EDTA. Non-specific binding is determined in the presence of 1 μM SCH 23390. Following incubation, the samples are filtered rapidly under vacuum through glass fiber filters (GF/B, Packard) presoaked with 0.3% PEI and rinsed several times with ice-cold 50 mM Tris-HCl using a 96-sample cell harvester (Unifilter, Packard). The filters are dried then counted for radioactivity in a scintillation counter (Topcount, Packard) using a scintillation cocktail (Microscint 0, Packard). The results are expressed as a percent inhibition of the control radioligand specific binding. The standard reference compound is SCH 23390, which is tested in each experiment at several concentrations to obtain a competition curve from which its IC50 is calculated, and from which the % inhibition at 1 μM as indicated in the following table is obtained.

T1 sequence (P21728 whole entry): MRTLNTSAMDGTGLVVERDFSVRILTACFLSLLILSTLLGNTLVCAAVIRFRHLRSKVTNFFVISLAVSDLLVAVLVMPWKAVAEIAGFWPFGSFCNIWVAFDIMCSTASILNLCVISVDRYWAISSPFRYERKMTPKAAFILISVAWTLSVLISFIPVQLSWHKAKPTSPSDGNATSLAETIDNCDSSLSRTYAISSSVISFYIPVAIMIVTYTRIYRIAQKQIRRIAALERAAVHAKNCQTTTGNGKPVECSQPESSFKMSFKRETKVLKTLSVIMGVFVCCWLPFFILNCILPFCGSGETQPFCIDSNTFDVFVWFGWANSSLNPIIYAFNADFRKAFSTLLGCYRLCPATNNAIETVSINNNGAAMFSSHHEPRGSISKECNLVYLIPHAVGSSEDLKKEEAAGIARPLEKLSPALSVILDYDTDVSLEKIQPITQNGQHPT
human α7 neuronal nicotinic receptor, sequence (P36544 23-502): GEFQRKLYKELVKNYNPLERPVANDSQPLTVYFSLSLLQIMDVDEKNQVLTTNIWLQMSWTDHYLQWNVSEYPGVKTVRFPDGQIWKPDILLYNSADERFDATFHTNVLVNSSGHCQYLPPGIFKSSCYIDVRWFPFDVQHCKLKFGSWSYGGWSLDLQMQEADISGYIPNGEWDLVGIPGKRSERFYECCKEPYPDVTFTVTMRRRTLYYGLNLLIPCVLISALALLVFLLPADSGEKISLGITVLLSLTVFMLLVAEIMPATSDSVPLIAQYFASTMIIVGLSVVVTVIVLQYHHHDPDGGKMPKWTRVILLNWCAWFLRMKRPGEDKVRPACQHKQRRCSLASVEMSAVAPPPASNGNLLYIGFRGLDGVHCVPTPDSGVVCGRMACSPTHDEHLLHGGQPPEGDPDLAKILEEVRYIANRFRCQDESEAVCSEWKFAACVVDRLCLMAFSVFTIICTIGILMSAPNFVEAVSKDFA
human muscle-type nicotinic receptor, sequence (P07510 23-517): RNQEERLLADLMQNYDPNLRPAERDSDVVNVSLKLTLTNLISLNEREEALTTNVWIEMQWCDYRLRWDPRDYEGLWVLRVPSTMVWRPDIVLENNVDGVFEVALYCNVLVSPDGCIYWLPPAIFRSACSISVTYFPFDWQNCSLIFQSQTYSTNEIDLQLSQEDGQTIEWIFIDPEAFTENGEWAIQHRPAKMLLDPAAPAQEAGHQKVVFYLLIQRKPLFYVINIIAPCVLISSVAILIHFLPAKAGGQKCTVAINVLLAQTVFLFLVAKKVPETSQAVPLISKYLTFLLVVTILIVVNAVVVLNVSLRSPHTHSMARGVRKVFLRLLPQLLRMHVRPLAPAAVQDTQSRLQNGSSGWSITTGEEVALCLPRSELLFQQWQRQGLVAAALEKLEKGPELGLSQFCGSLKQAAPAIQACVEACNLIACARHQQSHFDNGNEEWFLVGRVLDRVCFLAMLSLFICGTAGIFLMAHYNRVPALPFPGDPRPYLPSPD
human muscle-type nicotinic receptor, sequence (Q07001 22-517): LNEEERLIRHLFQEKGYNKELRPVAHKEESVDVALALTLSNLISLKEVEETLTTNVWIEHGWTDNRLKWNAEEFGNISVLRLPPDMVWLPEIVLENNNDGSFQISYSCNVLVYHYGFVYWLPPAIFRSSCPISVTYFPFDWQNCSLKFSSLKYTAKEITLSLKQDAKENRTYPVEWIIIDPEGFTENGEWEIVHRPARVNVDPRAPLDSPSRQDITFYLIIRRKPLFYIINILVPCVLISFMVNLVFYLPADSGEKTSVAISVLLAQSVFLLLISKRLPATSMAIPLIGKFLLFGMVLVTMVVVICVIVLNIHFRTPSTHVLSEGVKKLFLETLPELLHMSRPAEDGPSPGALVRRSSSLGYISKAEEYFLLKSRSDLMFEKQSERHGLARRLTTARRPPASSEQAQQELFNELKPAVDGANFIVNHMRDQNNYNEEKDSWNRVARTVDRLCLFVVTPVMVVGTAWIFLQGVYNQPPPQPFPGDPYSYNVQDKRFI
human muscle-type nicotinic receptor, sequence (P02708 21-457): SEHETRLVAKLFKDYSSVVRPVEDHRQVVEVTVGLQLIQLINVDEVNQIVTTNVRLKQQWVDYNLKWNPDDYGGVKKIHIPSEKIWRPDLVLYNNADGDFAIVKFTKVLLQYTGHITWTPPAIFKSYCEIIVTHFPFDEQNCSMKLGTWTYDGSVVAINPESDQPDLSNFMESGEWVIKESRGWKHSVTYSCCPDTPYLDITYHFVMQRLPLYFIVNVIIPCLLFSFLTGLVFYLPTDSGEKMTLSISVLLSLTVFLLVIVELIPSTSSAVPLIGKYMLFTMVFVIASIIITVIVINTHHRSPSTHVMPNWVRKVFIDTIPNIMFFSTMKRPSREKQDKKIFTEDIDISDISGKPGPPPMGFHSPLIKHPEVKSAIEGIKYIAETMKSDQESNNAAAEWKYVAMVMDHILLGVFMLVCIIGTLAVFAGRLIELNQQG
human muscle-type nicotinic receptor, sequence (P11230 24-501, further chain): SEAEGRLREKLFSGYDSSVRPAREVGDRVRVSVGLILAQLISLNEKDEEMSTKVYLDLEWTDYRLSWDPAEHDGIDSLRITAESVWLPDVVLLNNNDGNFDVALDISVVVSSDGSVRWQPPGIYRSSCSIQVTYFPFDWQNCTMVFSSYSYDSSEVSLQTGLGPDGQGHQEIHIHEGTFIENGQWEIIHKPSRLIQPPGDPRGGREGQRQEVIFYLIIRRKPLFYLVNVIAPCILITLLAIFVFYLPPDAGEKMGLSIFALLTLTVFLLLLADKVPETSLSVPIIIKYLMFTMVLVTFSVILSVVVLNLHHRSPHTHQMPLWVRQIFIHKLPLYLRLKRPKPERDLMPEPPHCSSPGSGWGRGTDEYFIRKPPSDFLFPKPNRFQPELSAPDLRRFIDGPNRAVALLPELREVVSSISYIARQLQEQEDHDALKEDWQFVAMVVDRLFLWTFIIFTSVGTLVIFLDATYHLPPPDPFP

Clc1ccc(C2CC3CCC2N3)cn1 (stereo not shown) [epibatidine]
analgesic potency higher than that of morphine [1]: about 200 fold

CCN1CCC2CC1(C(O)c1cccnc1)C2 (stereo not shown) [Compound 11]
inhibition at 50 pM [2]: -1%
inhibition at 0.0005 µM [3]: 17%

CCN1CCC2CC1(C(O)c1cccnc1)C2 (stereo not shown) [Compound 19a]
% inhibition D1 (h) (antagonist radioligand) [4]: 9%
